Laboratory results as given in patent publication US20220081434A1, “DIHYDROISOQUINOLINE COMPOUND” (SUZHOU ARK BIOPHARMACEUTICAL CO., LTD., priority 2019, published 2022).
Like-named read-outs stand apart in the source and are kept apart here.

What was measured:
[1] = system: hepatitis B surface antigen (HBsAg); assay: Determination of hepatitis B surface antigen (HBsAg) in HepG2.2.15 cell supernatant; format: cell-based, hepatitis B virus (HepG2.2.15 cells); details: Hepatitis B virus, HepG2.2.15, 96 h, read-out: HBsAg inhibitory activity IC50
Protocol: (§1) The full genome of HBV was inserted into an […] cell, which could therefore express HBV continuously (Sells et al, Proc Natl Acad Sci USA. 1987 February; 84 (4):1005-9). The culture condition was DMEM medium containing 10% serum and […] G418. Cells were placed in an incubator containing 5% CO2 and cultured at 37° C.
HepG2.2.15 cells were seeded into a 96-well culture plate at a density of 3×10^4 cells/well. On the next day, the drug dissolved in DMSO was subjected to a 5-fold dilution and then added to the cells. 0.5% DMSO was added separately as control. The supernatant was collected after 4 days of drug action, and the content of hepatitis B surface antigen was determined.
The determination of hepatitis B surface antigen was carried out by using a kit for quantitative determination of hepatitis B virus surface antigen (chemiluminescence method). The specific operations were as follows. 50 μL cell culture supernatant was taken and transferred to the assay plate. 50 μL of enzyme-linked reagent was added thereto and the assay plate was sealed. Incubation was carried out at room temperature for 1 hour. Afterwards, the assay plate was washed six times with PBS, and finally, the residual liquid was removed by shaking the plate. 25 μL of substrates A and B were added respectively, and the determination was conducted by using a microplate reader (Tecan Infinite® F200) after ten minutes of reaction. IC50 was calculated after fitting the dose-response curve.

[2] = system: HBV DNA; assay: Determination of HBV DNA in HepG2.2.15 cell supernatant by qPCR; format: cell-based, hepatitis B virus (HepG2.2.15 cells); details: Hepatitis B virus, 168 h, HepG2.2.15 cells, supernatant after a total of 7 days of drug action, read-out: Inhibitory activity against HBV DNA IC50
Protocol: as §1
HepG2.2.15 cells were seeded into a 96-well culture plate at a density of 4×10^4 cells/well. After 4 hours, the drug dissolved in DMSO was subjected to a 4-fold dilution and then added to cells. 0.5% DMSO was added separately as control. On the 4th day of drug action, the original supernatant was removed and then the drug was added thereto again. The supernatant was collected after a total of 7 days of drug action and treated with lysis buffer. The determination of hepatitis B DNA was carried out by real-time fluorescence-based quantitative polymerase chain reaction (qPCR). After the completion of the qPCR, data were exported from the instrument and analyzed, and IC50 indicating antiviral activity was calculated after fitting the dose-response curve.

[3] = Pharmacokinetic experiments in ICR mice (plasma); format: in vivo; details: for bioavailability / AUC(0-inf) / Cmax / Tmax / clearance / half-life / AUC(0-t) / Vd: mouse, plasma; for bioavailability: oral 10 mg/kg vs intravenous 2 mg/kg, read-out: F (bioavailability); for AUC(0-t): read-out: AUC0-12; for Vd: read-out: Vss; for plasma exposure compared with the control compound: same dose, after intravenous injection and oral administration
Protocol: Multiple compounds in the Examples of the present disclosure were administered to ICR mice to conduct pharmacokinetic experiments. A single intravenous injection (with a dose of 2 mg/kg) and a single oral administration (with a dose of 10 mg/kg) were administered respectively. Blood was respectively collected prior to administration and 5 minutes, 15 minutes, 30 minutes, 1 hour, 2 hours, 4 hours, 8 hours, 12 hours and 24 hours after administration, and the concentration of the test compound in plasma was determined. Plasma pharmacokinetic data of the control compound (obtained from Example 28 in patent WO2018130152 A1) and the compounds of Examples 10 and 19 in the present disclosure in mice were as shown in the following Table 5 to Table 7.

[4] = single intravenous injection 2 mg/kg
[5] = single oral administration 10 mg/kg

## COc1cc2c(cc1-c1cnc(N3CCC(CO)CC3)s1)CC(C(C)(C)C)n1cc(C(=O)O)c(=O)cc1-2 (stereo not drawn) [Example 2, 6-tert-butyl-9-{2-[4-(hydroxymethyl)piperidin-1-yl]thiazol-5-yl}-10-methoxy-2-oxo-6,7-dihydro-2H-pyrido[2,1-a]isoquinoline-3-carboxylic Acid]
[1]
  IC50: 0.06 nM
[2]
  IC50: 0.11 nM

## COc1cc2c(cc1-c1cnc(N3CC(F)(F)C3)s1)CC(C(C)(C)C)n1cc(C(=O)O)c(=O)cc1-2 (stereo not drawn) [Example 4, 6-tert-butyl-9-[2-(3,3-difluoroazetidin-1-yl)thiazol-5-yl]-10-methoxy-2-oxo-6,7-dihydro-2H-pyrido[2,1-a]isoquinoline-3-carboxylic Acid]
[1]
  IC50: 0.045 nM
[2]
  IC50: 0.26 nM

## COc1cc2c(cc1-c1cnc(N3CCC(C)(O)CC3)s1)CC(C(C)(C)C)n1cc(C(=O)O)c(=O)cc1-2 (stereo not drawn) [Example 7, 6-tert-butyl-9-[2-(4-hydroxy-4-methylpiperidin-1-yl)thiazol-5-yl]-10-methoxy-2-oxo-6,7-dihydro-2H-pyrido[2,1-a]isoquinoline-3-carboxylic Acid]
[1]
  IC50: 0.08 nM
[2]
  IC50: 0.15 nM

## COc1cc2c(cc1-c1cnc(N3CC(OC)C3)s1)CC(C(C)(C)C)n1cc(C(=O)O)c(=O)cc1-2 (stereo not drawn) [Example 9, 6-tert-butyl-10-methoxy-9-[2-(3-methoxyazetidin-1-yl)thiazol-5-yl]-2-oxo-6,7-dihydro-2H-pyrido[2,1-a]isoquinoline-3-carboxylic Acid]
[1]
  IC50: 0.03 nM
[2]
  IC50: 0.1 nM

## COCc1ncc(-c2cc3c(cc2OC)-c2cc(=O)c(C(=O)O)cn2C(C(C)(C)C)C3)s1 (stereo not drawn) [Example 10, 6-tert-butyl-10-methoxy-9-[2-(methoxymethyl)thiazol-5-yl]-2-oxo-6,7-dihydro-2H-pyrido[2,1-a]isoquinoline-3-carboxylic Acid]
[1]
  IC50: 0.2 nM
[2]
  IC50: 0.13 nM
[3]
  bioavailability: 33.9%
  plasma exposure compared with the control compound: significantly higher
[3]; [4]
  AUC(0-inf): 804 ng·h/mL
  Cmax: 423 ng/mL
  Tmax: 4.8 min
  clearance: 41.4 mL/min/kg
  half-life: 114 min
  AUC(0-t): 796 ng·h/mL
  Vd: 5.42 L/kg
[3]; [5]
  AUC(0-inf): 1400 ng·h/mL
  Cmax: 458 ng/mL
  Tmax: 30 min
  half-life: 156 min
  AUC(0-t): 1350 ng·h/mL

## COc1cc2c(cc1-c1cnc(N3CC(F)C3)s1)CC(C(C)(C)C)n1cc(C(=O)O)c(=O)cc1-2 (stereo not drawn) [Example 11, 6-tert-butyl-9-[2-(3-fluoroazetidin-1-yl)thiazol-5-yl]-10-methoxy-2-oxo-6,7-dihydro-2H-pyrido[2,1-a]isoquinoline-3-carboxylic Acid]
[1]
  IC50: 0.09 nM
[2]
  IC50: 0.13 nM

## CCOc1ncc(-c2cc3c(cc2OC)-c2cc(=O)c(C(=O)O)cn2C(C(C)(C)C)C3)s1 (stereo not drawn) [Example 13, 6-tert-butyl-9-[2-(ethoxy)thiazol-5-yl]-10-methoxy-2-oxo-6,7-dihydro-2H-pyrido[2,1-a]isoquinoline-3-carboxylic Acid]
[1]
  IC50: 0.2 nM
[2]
  IC50: 0.31 nM

## COc1cc2c(cc1-c1cnc(C(C)O)s1)CC(C(C)(C)C)n1cc(C(=O)O)c(=O)cc1-2 (stereo not drawn) [Example 16, 6-tert-butyl-9-[2-(1-hydroxyethyl)thiazol-5-yl]-10-methoxy-2-oxo-6,7-dihydro-2H-pyrido[2,1-a]isoquinoline-3-carboxylic Acid]
[1]
  IC50: 0.1 nM
[2]
  IC50: 0.41 nM

## CCCc1ncc(-c2cc3c(cc2OC)-c2cc(=O)c(C(=O)O)cn2C(C(C)(C)C)C3)s1 (stereo not drawn) [Example 18, 6-tert-butyl-10-methoxy-2-oxo-9-(2-propylthiazol-5-yl)-6,7-dihydro-2H-pyrido[2,1-a]isoquinoline-3-carboxylic Acid]
[1]
  IC50: 0.09 nM
[2]
  IC50: 0.06 nM

## CNC(=O)c1ncc(-c2cc3c(cc2OC)-c2cc(=O)c(C(=O)O)cn2C(C(C)(C)C)C3)s1 (stereo not drawn) [Example 19, 6-tert-butyl-10-methoxy-9-[2-(methylcarbamoyl)thiazol-5-yl]-2-oxo-6,7-dihydro-2H-pyrido[2,1-a]isoquinoline-3-carboxylic Acid]
[1]
  IC50: 0.3 nM
[3]
  bioavailability: 87%
  plasma exposure compared with the control compound: significantly higher
[3]; [4]
  AUC(0-inf): 1210 ng·h/mL
  Cmax: 1020 ng/mL
  Tmax: 4.8 min
  clearance: 27.6 mL/min/kg
  half-life: 78 min
  AUC(0-t): 1200 ng·h/mL
  Vd: 2.27 L/kg
[3]; [5]
  AUC(0-inf): 5290 ng·h/mL
  Cmax: 2420 ng/mL
  Tmax: 30 min
  half-life: 150 min
  AUC(0-t): 5210 ng·h/mL

## COc1cc2c(cc1-c1cnc(COC(F)F)s1)CC(C(C)(C)C)n1cc(C(=O)O)c(=O)cc1-2 (stereo not drawn) [Example 23, 6-tert-butyl-9-{2-[(difluoromethoxy)methyl]thiazol-5-yl}-10-methoxy-2-oxo-6,7-dihydro-2H-pyrido[2,1-a]isoquinoline-3-carboxylic Acid]
[1]
  IC50: 0.2 nM
[2]
  IC50: 0.84 nM

## COc1cc2c(cc1-c1cnc(COC3CC3)s1)CC(C(C)(C)C)n1cc(C(=O)O)c(=O)cc1-2 (stereo not drawn) [Example 24, 6-tert-butyl-9-[2-(cyclopropoxymethyl)thiazol-5-yl]-10-methoxy-2-oxo-6,7-dihydro-2H-pyrido[2,1-a] isoquinoline-3-carboxylic Acid]
[1]
  IC50: 0.2 nM
[2]
  IC50: 0.45 nM

## COc1cc2c(cc1-c1cnc(C3CC(F)(F)C3)s1)CC(C(C)(C)C)n1cc(C(=O)O)c(=O)cc1-2 (stereo not drawn) [Example 25, 6-tert-butyl-9-[2-(3,3-difluorocyclobutyl)thiazol-5-yl]-10-methoxy-2-oxo-6,7-dihydro-2H-pyrido[2,1-a]isoquinoline-3-carboxylic Acid]
[1]
  IC50: 0.24 nM

## COc1cc2c(cc1-c1cnc(C3CC(F)C3)s1)CC(C(C)(C)C)n1cc(C(=O)O)c(=O)cc1-2 (stereo not drawn) [Example 26, 6-tert-butyl-9-[2-(3-fluorocyclobutyl)thiazol-5-yl]-10-methoxy-2-oxo-6,7-dihydro-2H-pyrido[2,1-a]isoquinoline-3-carboxylic Acid]
[1]
  IC50: 0.1 nM

## COc1cc2c(cc1-c1cnc(C3CC(OC)C3)s1)CC(C(C)(C)C)n1cc(C(=O)O)c(=O)cc1-2 (stereo not drawn) [Example 27, 6-tert-butyl-10-methoxy-9-[2-(3-methoxycyclobutyl)thiazol-5-yl]-2-oxo-6,7-dihydro-2H-pyrido[2,1-a]isoquinoline-3-carboxylic Acid]
[1]
  IC50: 0.1 nM
